Read-outs that look alike come from different tables or passages of the source.
Assays:
[1] = system: two-spotted spider mites; assay: Insecticidal test on two-spotted spider mites (Test Example 1); format: in vivo; details: Tetranychus urticae, 312 h, read-out: preventive value
From the text: Test Example 1 Insecticidal Test on Two-Spotted Spider Mites

[2] = wettable powder diluted to 500 ppm active ingredient, soybean seedlings inoculated with adult mites immersed, survivors counted after 13 days, Equation 1

Structure (SMILES) | melting point [°C] | pest or weed control at 500 µg/mL ([1]; in Glycine max) [%] | pest or weed control at 500 µg/mL [1, 2] [%]
C=CCSc1cc(-c2ccc(C(F)(F)F)cc2)ccc1C#N [Compound I-42, 2-(2-propenylthio)-4-(4-trifluoromethylphenyl)benzonitrile] | 89 to 90 | ≥ 90 | –
N#Cc1ccc(-c2n[nH]cc2C(F)(F)F)cc1SCC(F)(F)F [Compound V-639, 2-(2,2,2-trifluoroethylthio)-4-(4-trifluoromethylpyrazolyl)benzonitrile] | 90 to 91 | – | ≥ 90
CSc1cc(-c2ccccc2)c(C#N)c(N)c1[N+](=O)[O-] [Comparative Compound 2, 2-amino-6-phenyl-4-methylthio-3-nitrobenzonitrile, reference compound] | – | – | 0
CCCSc1cc(-c2ccc(C(F)(F)F)cc2)c(F)cc1[N+](=O)[O-] [Compound I-221, [4-fluoro-2-nitro-5-(4-trifluoromethylphenyl)phenyl] propyl sulfide] | 57 to 59 | ≥ 90 | –
N#Cc1ccc(-c2ccc(Cl)s2)cc1SCC1CC1 [I V-5, 4-(5-chlorothiophen-2-yl)-2-cyclopropylmethylthiobenzonitrile] | 123 to 124 | – | ≥ 90
N#Cc1ccc(-c2ccc(C(F)(F)F)cn2)cc1SCC1CC1 [I I-5, 2-cyclopropylmethylthio-4-(5-trifluoromethylpyridin-2-yl)benzonitrile] | 135 to 136 | – | ≥ 90
CSc1cc(-c2ccccc2)c(C#N)c(N)c1C#N [Comparative Compound 1, 2-amino-6-methylthio-4-phenyl-benzene-1,3-dicarbonitrile, reference compound] | – | – | 0
CCOCOc1ccc(-c2ccc(C(F)(F)F)cc2)cc1SCC(F)(F)F [Compound I-213, [2-ethoxymethoxy-5-(4-trifluoromethylphenyl)phenyl] 2,2,2-trifluoroethyl sulfide] | – | ≥ 90 | –
CCSc1cc(-c2ccc(Cl)cc2Cl)ccc1C#N | 89 to 92 | – | –
